Test results reported in the supplement of paper PMC10307832.

Compound: C=CCNC1=C2C[C@@H](C)C[C@H](OC)[C@H](O)[C@@H](C)/C=C(\C)[C@H](OC(N)=O)[C@@H](OC)/C=C\C=C(/C)C(=O)NC(=CC1=O)C2=O [17-AAG] + Cc1cc(Nc2cc(N3CCN(C)CC3)nc(Sc3ccc(NC(=O)C4CC4)cc3)n2)n[nH]1 [Tozasertib] (partner 0.1 µM)
Assay: relative viability (nuclei count vs DMSO), 5 days (fraction); higher = more cells survive
Outline: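 A single step with final 0.05% Triton X-100, 1% formaldehyde and 1 ug/ml Hoechst fixed the cells and stained nuclei 5 days after treatment. Lung cancer cell lines in 1536-well plates had been treated by pin tool the day after seeding with one drug alone or a fixed anchor-drug dose plus five library-drug doses (not always all listed) in √10 steps, and nuclei were counted on 4× images. Relative viability is the ratio of nuclei in treated wells to nuclei in vehicle wells, taken as the median of duplicate plates.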

Cell Line | relative viability (first compound 0.00128 µM) | relative viability (first compound 0.004048 µM) | relative viability (first compound 0.0128 µM) | relative viability (first compound 0.04048 µM) | relative viability (first compound 0.128 µM)
201T | 0.988 | 0.915 | 0.872 | 0.891 | 0.388
A-427 | 0.21 | 0.221 | 0.238 | 0.257 | 0.186
ABC-1 | 0.163 | 0.2 | 0.185 | 0.207 | 0.175
BEN | 0.529 | 0.625 | 0.473 | 0.738 | 0.472
CAL-12T | 0.328 | 0.24 | 0.375 | 0.314 | 0.153
COR-L23 | 0.2 | 0.25 | 0.225 | 0.158 | 0.0795
COR-L 105 | 0.458 | 0.356 | 0.384 | 0.713 | 0.418
ChaGo-K-1 | 0.215 | 0.249 | 0.279 | 0.217 | 0.205
EKVX | 0.448 | 0.377 | 0.398 | 0.238 | 0.0984
EMC-BAC-2 | 0.286 | 0.297 | 0.347 | 0.26 | 0.226
EPLC-272H | 0.331 | 0.329 | 0.482 | 0.379 | 0.143
H3255 | 0.957 | 0.496 | 0.612 | 0.234 | 0.228
HARA | 0.0961 | 0.125 | 0.135 | 0.148 | 0.132
HCC-15 | 0.429 | 0.453 | 0.365 | 0.124 | 0.0778
HCC-44 | 0.898 | 0.753 | 0.293 | 0.19 | 0.135
HCC-78 | 0.443 | 0.401 | 0.418 | 0.637 | 0.223
HCC-366 | 0.191 | 0.22 | 0.268 | 0.044 | 0.0391
HCC-827 | 0.402 | 0.427 | 0.467 |  | 0.432
HOP-62 | 0.363 | 0.466 | 0.386 | 0.212 | 0.17
LC-2-ad | 0.437 | 0.437 | 0.429 | 0.316 | 0.226
LCLC-97TM1 | 0.213 | 0.268 | 0.268 | 0.251 | 0.21
LCLC-103H | 0.555 | 0.55 | 0.458 | 0.532 | 0.643
LK-2 | 0.161 | 0.174 | 0.153 | 0.227 | 0.172
LOU-NH91 | 0.663 | 0.475 | 0.39 | 0.327 | 0.307

Cell Line | relative viability (first compound 0.00128 µM) | relative viability (first compound 0.004048 µM) | relative viability (first compound 0.0128 µM) | relative viability (first compound 0.04048 µM) | relative viability (first compound 0.128 µM)
LU99A | 0.288 | 0.345 | 0.399 | 0.276 | 0.132
LXF-289 | 0.204 | 0.22 | 0.203 | 0.127 | 0.0677
NCI-H23 | 0.425 | 0.563 | 0.365 | 0.213 | 0.187
NCI-H322M | 0.478 | 0.443 | 0.337 | 0.316 | 0.325
NCI-H358 | 0.115 | 0.0905 | 0.0894 | 0.0684 | 0.0644
NCI-H441 | 0.723 | 0.609 | 0.321 | 0.235 | 0.15
NCI-H460 | 0.478 | 0.521 | 0.0911 | 0.0297 | 0.0214
NCI-H520 | 0.453 | 0.47 | 0.457 | 0.253 | 0.24
NCI-H522 | 0.621 | 0.532 | 0.619 | 0.558 | 0.502
NCI-H596 | 0.959 | 0.832 | 1.01 | 0.443 | 0.258
NCI-H647 | 0.419 | 0.222 | 0.0879 | 0.0995 | 0.0751
NCI-H650 | 0.698 | 0.675 | 0.702 | 0.584 | 0.153
NCI-H661 | 0.372 | 0.326 | 0.358 | 0.344 | 0.289
NCI-H727 | 0.569 | 0.682 | 0.53 | 0.453 | 0.25
NCI-H838 | 0.315 | 0.309 | 0.161 | 0.135 | 0.134
NCI-H1355 | 0.554 | 0.583 | 0.543 | 0.555 | 0.167
NCI-H1395 | 0.625 | 0.698 | 0.694 | 0.408 | 0.342
NCI-H1437 | 0.4 | 0.477 | 0.296 | 0.311 | 0.164
NCI-H1648 | 0.433 |  | 0.426 | 0.608 | 0.327
NCI-H1650 | 0.458 | 0.317 | 0.215 | 0.175 | 0.206
NCI-H1651 | 0.778 | 0.667 | 0.612 | 0.302 | 0.14
NCI-H1666 | 0.589 | 0.599 | 0.46 | 0.343 | 0.294
NCI-H1734 | 0.272 | 0.293 | 0.224 | 0.161 | 0.125
NCI-H1755 | 0.609 | 0.477 | 0.481 | 0.363 | 0.215

Cell Line | relative viability (first compound 0.00128 µM) | relative viability (first compound 0.004048 µM) | relative viability (first compound 0.0128 µM) | relative viability (first compound 0.04048 µM) | relative viability (first compound 0.128 µM)
NCI-H1793 | 0.385 | 0.313 | 0.398 | 0.154 | 0.123
NCI-H1915 | 0.455 | 0.442 | 0.401 | 0.392 | 0.111
NCI-H1944 | 0.239 | 0.248 | 0.219 | 0.213 | 0.138
NCI-H1975 | 0.796 | 0.587 | 0.145 | 0.12 | 0.0964
NCI-H1993 | 0.56 | 0.591 | 0.585 | 0.42 | 0.453
NCI-H2009 | 0.727 | 0.72 | 0.756 | 0.65 | 0.259
NCI-H2023 | 0.51 | 0.351 | 0.102 | 0.0765 | 0.0654
NCI-H2085 | 0.798 | 0.673 | 0.71 | 0.799 | 0.679
NCI-H2087 | 0.306 | 0.228 | 0.208 | 0.148 | 0.1
NCI-H2126 | 0.9 | 0.842 | 0.44 | 0.26 | 0.298
NCI-H2170 | 0.739 | 0.77 | 0.65 | 0.327 | 0.173
NCI-H2228 | 0.301 | 0.151 | 0.105 | 0.131 | 0.128
NCI-H2342 | 0.442 | 0.437 | 0.518 | 0.493 | 0.306
NCI-H2347 | 0.564 | 0.518 | 0.507 | 0.278 | 0.303
NCI-H2405 | 0.776 | 0.765 | 0.451 | 0.28 | 0.156
NCI-H3122 | 0.473 | 0.187 | 0.0915 | 0.104 | 0.0922
PC-3 [JPC-3] | 0.894 | 0.847 | 0.922 |  | 0.839
PC-14 | 0.55 | 0.472 | 0.27 | 0.067 | 0.0544
RERF-LC-KJ | 0.551 | 0.754 | 0.293 | 0.275 | 0.257
SK-LU-1 | 0.426 | 0.243 | 0.128 | 0.152 | 0.139
SK-MES-1 | 0.872 | 0.851 | 0.168 | 0.164 | 0.143
SW 900 | 0.684 | 0.565 | 0.262 | 0.133 | 0.113
SW 1573 | 0.234 | 0.254 | 0.117 | 0.104 | 0.0907
UMC-11 | 0.222 | 0.219 | 0.225 | 0.217 | 0.222
